Experiments:
CBP^+/− mutant mice = conditions: cited from earlier work
patients with PD = conditions: cited from earlier work
[1] = system: rat mesencephalonic neurons; conditions: in the presence of the adenylate cyclase activator forskolin; cited from earlier work
[2] = system: C57BL/6 mice injected with MPTP; conditions: cited from earlier work
[3] = Cardiovascular and respiratory function in anesthetized dogs; type: in vivo; conditions: anesthetized Beagle dogs; 400, 800 and 1,200 mg/kg/day via jugular vein infusion; compared to the vehicle control group
Description: The effects of 3-(3,4-dimethoxy-phenyl)-3-(1-oxo-1,3-dihydro-isoindol-2-yl)-propionamide on cardiovascular and respiratory function are investigated in anesthetized dogs. Two groups of Beagle dogs (2/sex/group) are used. One group receives three doses of vehicle only and the other receives three ascending doses of 3-(3,4-dimethoxy-phenyl)-3-(1-oxo-1,3-dihydro-isoindol-2-yl)-propionamide (400, 800, and 1,200 mg/kg/day). In all cases, doses of 3-(3,4-dimethoxy-phenyl)-3-(1-oxo-1,3-dihydro-isoindol-2-yl)-propionamide or vehicle are successively administered via infusion through the jugular vein separated by intervals of at least 30 minutes.

Row | SMILES | long-term memory defects (CBP^+/− mutant mice) | uptake of dopamine [1] | dopamine depletion in the striatum [2] | loss of tyrosine hydroxylase-immunopositive neurons in the substantia nigra [2] | other results
1 | COc1ccc(C2CNC(=O)C2)cc1OC1CCCC1 (centres unmarked) [Rolipram] | abolished the long-term memory defects |  |  |  | deterioration of the therapeutic action of dopamine against Lisuride (patients with PD; 3 mg per day, patients with PD already under treatment): no significant deterioration; dose-limiting side effect (patients with PD; Phase II trials of PD): nausea
2 | COc1ccc([C@H]2CNC(=O)[C@H](Cc3cccc(C)c3)C2)cc1OC1CCCC1 [HT0712] | abolished the long-term memory defects |  |  |  | 
3 | COCCOc1cc(OCCOC)cc(-c2nc(C)cc3cc(OC)c(OC)cc23)c1 [SDZ-MNS 949] |  | stimulate uptake of dopamine | reduce dopamine depletion in the striatum | reduce loss of tyrosine hydroxylase-immunopositive neurons | 
4 | COc1ccc(C(CC(N)=O)N2Cc3ccccc3C2=O)cc1OC (centres unmarked) [3-(3,4-Dimethoxy-phenyl)-3-(1-oxo-1,3-dihydro-isoindol-2-yl)-propionamide] |  |  |  |  | cardiovascular and respiratory changes [3]: minimal at all doses
5 | CCCCOc1cc(CC2CNC(=O)N2)ccc1OC (centres unmarked) [Ro-20 1724] |  | stimulate uptake of dopamine | reduce dopamine depletion in the striatum | reduce loss of tyrosine hydroxylase-immunopositive neurons | 

Reference: patent US20070190070A1, “Methods of using and compositions comprising selective cytokine inhibitory drugs for the treatment and management of disorders of the central nervous system” (priority 2004, published 2007)
